The values below come from patent US10829520B2, “Beta-hairpin peptidomimetics” (POLYPHOR AG, priority 2015, dated 2020).

Molecules are shown by their SMILES. Where a SMILES comes first, the peptide text is derived from it. Bridges are numbered along the chain shown (N, C = ends). [ ]: non-standard residue; d: D form. Tle = CC(C)(C)[C@H](N)C(=O)O; dDab = NCC[C@@H](N)C(=O)O; Orn = NCCC[C@H](N)C(=O)O; Dab = NCC[C@H](N)C(=O)O; Dap = NC[C@H](N)C(=O)O

Holding throughout (assay type): cell-based
The test system of data set [1] is Acinetobacter baumannii 872842. Particulars: 872842.
Data set [2] relates to Acinetobacter baumannii DSM 30008. Particulars: DSM 30008. The method, boiled down: (§1)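 Inocula standardised to a 0.5 McFarland reference and diluted to about 10^6 CFU/mL in MH-II broth are incubated with two-fold peptide series containing 0.002% polysorbate 80. No visible growth after 18-20 hours at 35° C defines the MIC, in μg/mL.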
Another data set has as its system Escherichia coli 926415. As to conditions: 926415.
The subject of data set [3] is Escherichia coli ATCC 25922. Particulars: ATCC 25922. The method, boiled down:
as §1

The test system of data set [4] is Klebsiella pneumoniae 968733. As to conditions: 968733.
The test system of data set [5] is Klebsiella pneumoniae SSI #3010. As to conditions: SSI #3010. The method, boiled down: as §1
Data set [6] deals with Pseudomonas aeruginosa ATCC 27853. Particulars: ATCC 27853. Put shortly:
as §1

Data set [7] relates to human red blood cells (hRBC). The experiment in a line: Hemolysis of human red blood cells. As to conditions: red cells of human, 1 h, 100 μg/mL. The method, boiled down:
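Peptides at 100 μg/mL were incubated with PBS-washed fresh human erythrocytes (20% v/v, ~0.9×10^9 cells/mL final) for 1 h at 37° C. with shaking. Supernatant OD540 was read after 8-fold dilution; percent hemolysis was expressed relative to the 2.5% Triton X-100 full-lysis control, with PBS/0.001% acetic acid as 0%.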

Turning to `CC(=O)N[C@@H](Cc1c[nH]c2ccccc12)C(=O)N[C@H]1CSSC[C@@H](C(=O)N[C@@H](CCCN)C(=O)N[C@H](C(=O)N[C@@H](CCN)C(=O)N[C@H]2CCNC(=O)[C@H]([C@@H](C)O)NC(=O)[C@H](CCN)NC(=O)[C@H](CCN)NC(=O)[C@H](CC(C)C)NC(=O)[C@@H](Cc3ccccc3)NC(=O)[C@H](CCN)NC2=O)[C@@H](C)O)NC(=O)[C@H](Cc2ccc(O)cc2)NC(=O)CNC(=O)[C@H](CC(C)C)NC(=O)[C@@H]2CCCN2C(=O)[C@H]2CCCN2C(=O)[C@H](CO)NC(=O)[C@H](CN)NC(=O)[C@H](C(C)(C)C)NC1=O` [Ex. 117] (Ac-WC[Tle][Dap]S[dP]PLGYC[Orn]T[Dab][Dab][Dab][dF]L[Dab][Dab]T; disulfide 2-11; lactam 15-C), the “Acinetobacter baumannii 872842 MIC” value in data set [1] was determined as 0.125 µg/mL. Besides, the “Acinetobacter baumannii DSM 30008 MIC” value in data set [2] stood at 0.25 µg/mL. Moreover, the “Escherichia coli 926415 MIC” value in the data set on Escherichia coli 926415 worked out at 0.25 µg/mL. Besides, the “Escherichia coli ATCC 25922 MIC” value in data set [3] turned out to be 0.5 µg/mL. In data set [4], the “Klebsiella pneumoniae 968733 MIC” value amounted to 2 µg/mL. Further, in data set [5], the “Klebsiella pneumoniae SSI #3010 MIC” value stood at 1 µg/mL. Besides, in data set [6], the “Pseudomonas aeruginosa ATCC 27853 MIC” value was 2 µg/mL. In addition, the “Hemolysis at 100 μg/mL” value in data set [7] is under 1%.
`CC(=O)N[C@@H](Cc1c[nH]c2ccccc12)C(=O)N[C@H]1CSSC[C@@H](C(=O)N[C@@H](CCCN)C(=O)N[C@H](C(=O)N[C@@H](CCN)C(=O)N[C@H]2CCNC(=O)[C@H]([C@@H](C)O)NC(=O)[C@H](CCN)NC(=O)[C@H](CCN)NC(=O)[C@H](CC(C)C)NC(=O)[C@@H](Cc3ccccc3)NC(=O)[C@H](CCN)NC2=O)[C@@H](C)O)NC(=O)[C@H](Cc2ccc(O)cc2)NC(=O)[C@H](CO)NC(=O)[C@H]([C@@H](C)O)NC(=O)[C@@H]2CCCN2C(=O)[C@H]2CCCN2C(=O)[C@H](CC(C)C)NC(=O)[C@H](C)NC(=O)[C@H](C(C)(C)C)NC1=O` [Ex. 118] (Ac-WC[Tle]AL[dP]PTSYC[Orn]T[Dab][Dab][Dab][dF]L[Dab][Dab]T; disulfide 2-11; lactam 15-C): in data set [1], the “Acinetobacter baumannii 872842 MIC” value worked out at 0.25 µg/mL. For the same compound, the “Acinetobacter baumannii DSM 30008 MIC” value in data set [2] was 0.25 µg/mL. In addition, the “Escherichia coli 926415 MIC” value with Escherichia coli 926415 stood at 0.5 µg/mL. The “Escherichia coli ATCC 25922 MIC” value in data set [3] came out at 0.5 µg/mL. The “Klebsiella pneumoniae 968733 MIC” value in data set [4] was found to be 0.5 µg/mL. The “Klebsiella pneumoniae SSI #3010 MIC” value in data set [5] was 0.5 µg/mL. Besides, the “Pseudomonas aeruginosa ATCC 27853 MIC” value in data set [6] came out at 2 µg/mL. In addition, in data set [7], the “Hemolysis at 100 μg/mL” value turned out to be 2%.
For the compound `CC[C@H](C)[C@@H]1NC(=O)[C@@H]2CCCN2C(=O)[C@H]2CCCN2C(=O)[C@H](Cc2ccc(O)cc2)NC(=O)[C@@H](NC(=O)[C@@H](NC(=O)[C@H](CCN)NC(=O)[C@H](CC(C)C)NC(C)=O)C(C)C)CSSC[C@@H](C(=O)N[C@@H](Cc2ccc(O)cc2)C(=O)N[C@@H](CCN)C(=O)N[C@@H](CCCN)C(=O)N[C@H](CCN)C(=O)N[C@@H](CCN)C(=O)N[C@H]2CCNC(=O)[C@H]([C@@H](C)O)NC(=O)[C@H](CCN)NC(=O)[C@H](CCN)NC(=O)[C@H](CC(C)C)NC(=O)[C@@H](Cc3ccccc3)NC(=O)[C@H](CCN)NC2=O)NC1=O` [Ex. 119] (Ac-L[Dab]VCY[dP]PICY[Dab][Orn][dDab][Dab][Dab][Dab][dF]L[Dab][Dab]T; disulfide 4-9; lactam 15-C), the “Acinetobacter baumannii 872842 MIC” value in data set [1] was 0.5 µg/mL. Moreover, the “Acinetobacter baumannii DSM 30008 MIC” value in data set [2] was 0.5 µg/mL. Besides, the “Escherichia coli 926415 MIC” value in the data set with Escherichia coli 926415 worked out at 1 µg/mL. Besides, in data set [3], the “Escherichia coli ATCC 25922 MIC” value came out at 0.25 µg/mL. Moreover, in data set [4], the “Klebsiella pneumoniae 968733 MIC” value was found to be 4 µg/mL. Also, the “Klebsiella pneumoniae SSI #3010 MIC” value in data set [5] turned out to be 1 µg/mL. Also, in data set [6], the “Pseudomonas aeruginosa ATCC 27853 MIC” value came to 0.25 µg/mL. Further, in data set [7], the “Hemolysis at 100 μg/mL” value stood at 0.5%.
